# Measured values reported in US20250221953A1 (The University of Chicago, priority 2022, published 2025).
# Key:
# [1] = system: mouse primary CD8^+ T cells; assay: In vitro function of activated mouse primary CD8+ T cells (cytokines, Ki-67, apoptosis, p-CREB); format: cell-based
# Experimental: For experiments with live/dead criteria, cells were first stained with Fixable Viability Dyes (FVD) (Thermo Fisher Scientific) according to the manufacturer's instructions. Subsequent surface marker staining was performed in Flow Cytometry Staining Buffer (Thermo Fisher Scientific). Intracellular staining for flow panels containing nuclear proteins was performed using the eBioscience FoxP3/Transcription Factor Staining Buffer Set (Thermo Fisher Scientific) according to the manufacturer's instructions. For intracellular staining of cytoplasmic proteins, the Fixation/Permeabilization Solution Kit (BD Biosciences) was used according to the manufacturer's instructions. […] The cell pellets were washed again with FACS buffer, centrifuged at 300×g for 5 minutes, and incubated with antibodies in FACS buffer for 45 minutes-1 hour at room temperature. […] Treatment with sulfosuccinimidyl oleate (SSO) was performed by incubating cells with 100 μM SSO for 24 hours.
# [2] = system: Mouse CD8^+ T cell; assay: Second screen: IL-2 level of mouse CD8+ T cells
structure (smiles),measurement,setting,value
"CCCCCC/C=C/CCCCCCCCCC(=O)O [TVA, trans-vaccenic acid]",TVA wash-off assay (TVAc vs TVAw),[1]; 20 μM TVA 48 hours vs 24 hours then medium without TVA,effects are reversible
same,"p-CREB level in CD8+ T cells, increasing concentrations","[1]; 8-Bromo-cAMP 0.01-100 μM or TVA 10-1000 μM, 24 hours",dose-dependent manner
same,reversal of SCFA-dependent suppression on CD8+ T cells,[1]; TVA 20 μM with SCFA agonists,able to reverse SCFA-dependent suppression on CD8^+ T cells
same,phosphorylation level of Lck (p-Lck) in CD8+ T cells,[1]; TVA treatment,does not alter phosphorylation level of Lck
same,phosphorylation of CREB in CD8+ T cells,[1]; TVA treatment,promotes phosphorylation of CREB
same,TNF-α and IFN-γ expression of primary CD8+ T cells,[1]; TVA treatment in vitro,increased expression of TNF-α and IFN-γ
same,suppression of CD8+ T cells by pre-treatment with 20 mM acetate (acetate first),"[1]; acetate 12 hours, then TVA 20 μM 12 hours",can be reversed by TVA at 20 μM
same,TVA level sufficient to reverse suppression of CD8+ T cells by acetate,"[1]; acetate at 20 mM, TNF-α",≤ 2 µM
same,Mouse CD8^+ T cell IL-2 level changes after treatment,[2],193.6%
